Measured values published in US12042503B2, “Compositions and methods for treating coronavirus infections” (priority 2020, dated 2024).

Assays:
EP4 receptor (PTGER4) [1] = molecular target: T1, EP4 receptor (PTGER4) (Homo sapiens, UniProt P35408); test: PathHunter β-Arrestin PTGER4 (EP4) agonist assay, optimisation of cell density and temperature; format: cell-based; conditions: for EC50: read-out: RC50 (μM) / EC50, agonist
T1 construct: expressed in transfected cells; host or cells: PathHunter β-Arrestin PTGER4 (EP4) cell line
T1 sequence (P35408 whole entry): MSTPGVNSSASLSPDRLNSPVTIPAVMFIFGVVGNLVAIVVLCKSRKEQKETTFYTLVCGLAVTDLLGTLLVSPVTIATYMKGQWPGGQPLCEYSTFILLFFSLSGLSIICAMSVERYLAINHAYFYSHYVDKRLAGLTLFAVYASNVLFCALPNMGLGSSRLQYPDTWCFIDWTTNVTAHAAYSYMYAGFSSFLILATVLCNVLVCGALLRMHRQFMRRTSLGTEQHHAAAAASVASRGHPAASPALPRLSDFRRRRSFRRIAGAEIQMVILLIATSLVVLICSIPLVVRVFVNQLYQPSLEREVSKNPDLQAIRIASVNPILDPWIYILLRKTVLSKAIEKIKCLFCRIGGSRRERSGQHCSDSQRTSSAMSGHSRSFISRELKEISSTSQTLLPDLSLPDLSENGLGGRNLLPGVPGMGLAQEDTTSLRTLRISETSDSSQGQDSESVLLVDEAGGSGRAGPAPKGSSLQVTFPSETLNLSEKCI
Protocol: This Example describes antagonist assay experiments performed with known EP4 receptor inhibitors. Agonist controls and antagonist binding studies were performed in the PathHunter® β-Arrestin PTGER4 (EP4) cell lines. The PathHunter® β-Arrestin assay monitors activation by bound ligands of a GPCR in a homogenous, non-imaging assay format using Enzyme Fragment Complementation (EFC) with β-galactosidase (β-Gal) as the functional reporter. A fresh 10 mM working stock of GP1681 was created in the vehicle (1×PBS, pH 7.4). Prior to setting up the GP1681-antagonist assays, the parameters of the GP1681 agonist assay were optimized for most efficient cellular activation and expression of the reporter molecule via GP1681 receptor (PTGER4) binding. Two different cell densities (5K vs 7.5K) and incubation temperatures (room temperature and 37 C) were evaluated in standard agonist format. […] Vehicle only controls (1×PBS, pH 7.4) were also included for each receptor cell line. Receptor binding activity was analyzed using CBIS data analysis suite (ChemInnovation Software, Inc., San Diego, CA, USA).
The percentage of activity was calculated using the following formula: % Activity=100%×(mean RLU of test sample−mean RLU of vehicle control)/(mean MAX control ligand−mean RLU of vehicle control). Dose curves were performed and EC50 values determined. In all rows, the assay was Arrestin, the assay target was PTGER4, and the result type was EC50 for all agonists, and IC50 for all antagonists. NI indicates no inhibition, N is number of replicates, K is cell density, and RT is room temperature.

EP4 receptor (PTGER4) [2] = molecular target: T1, EP4 receptor (PTGER4); test: PathHunter beta-arrestin cell-based prostanoid receptor assay, EP4; conditions: β-Arrestin
Protocol: (§1) DiscoverX cell-based ligand binding assays were performed in the PathHunter beta-arrestin (EP1, EP2, EP3, EP4, FP, IP, and TP receptors) or cAMP Hunter™ (DP receptor) cell lines.
(§2) Receptor binding studies were performed in either the PathHunter® b-Arrestin (EP1, EP2, EP3, EP4, FP, IP, and TP receptors) or cAMP Hunter™ (DP receptor) cell lines. A 10 mM working stock of GP1681 was created in 1×PBS, pH 7.4. All assays were carried out in duplicate with 10 individual concentrations of GP1681. A three-fold dilution series of GP1681 was established for the initial or pilot experiment with a starting concentration of 4 uM (starting concentration was chosen based on previous Gemmus Pharma preclinical experimental results).
GP1681 was incubated with cells lines at either 37° C. or room temperature, for 90-180 minutes (temperatures and incubation times are all dependent on established optimized procedures for each receptor cell line) after which cell wells were processed and signal production detected. […] Receptor binding activity was analyzed using CBIS data analysis suite (ChemInnovation, CA). The percentage of activity was calculated using the following formula: % Activity=100%×(mean RLU of test sample−mean RLU of vehicle control)/(mean MAX control ligand−mean RLU of vehicle control). Dose curves were performed and EC50 values determined. […]

[3] = Stability of GP1681 dosing formulations at room temperature by UHPLC; format: physicochemical; conditions: 10% (w/v) PEG 400 in calcium and magnesium free PBS, pH 7.4; 0.0319 and 0.0596 mg/mL
Protocol: GP1681 in 10% (w/v) polyethylene glycol (PEG) 400 in calcium and magnesium free phosphate buffered saline (PBS), pH 7.4 was used for evaluation by ultra-high performance liquid chromatography (UHPLC; Agilent 1290 UHPLC instrument).
Dosing formulations of GP1681 (0, 0.01, 0.03, and 0.05 mg/mL) in 10% (w/v) PEG 400 in calcium and magnesium free PBS, pH 7.4 were collected and analyzed by UHPLC to assess accuracy of the preparation. Aliquots from the top, middle and bottom of the formulations were collected and analyzed to assess homogeneity of the formulations. The dosing formulations were diluted to bring the test article concentration to a suitable level within the calibration range. The samples were initially analyzed on the day of preparation. However, due to unacceptable results observed, the backup samples (stored at −10 to −30° C.) were analyzed five days later.
The concentration of GP1681 was calculated by reference to the solvent standard solutions prepared and analyzed concurrently with the dosing formulations. […]
Stability of the dosing formulations was determined by storing the middle aliquots of the high and low primary dose formulation samples in the Definitive Assay at room temperature for 3.7 hours and reanalyzing as described above. The results met the acceptance criterion of 90-110% of the concentration determined at T=0.

TP receptor (TBAX2R) = molecular target: T2, TP receptor (TBAX2R) (Homo sapiens, UniProt P21731); test: PathHunter beta-arrestin cell-based prostanoid receptor assay, TP
T2 construct: host or cells: PathHunter beta-arrestin cell line
T2 sequence (P21731 1-343): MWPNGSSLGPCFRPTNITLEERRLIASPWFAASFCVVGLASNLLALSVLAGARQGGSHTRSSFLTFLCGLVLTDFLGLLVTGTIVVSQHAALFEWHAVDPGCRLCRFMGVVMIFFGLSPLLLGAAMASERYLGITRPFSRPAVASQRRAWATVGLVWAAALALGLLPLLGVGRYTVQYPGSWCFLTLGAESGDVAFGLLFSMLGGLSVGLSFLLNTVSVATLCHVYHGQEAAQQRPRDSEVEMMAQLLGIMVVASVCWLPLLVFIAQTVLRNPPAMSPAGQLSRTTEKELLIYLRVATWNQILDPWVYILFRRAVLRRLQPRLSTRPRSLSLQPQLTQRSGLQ
Protocol: as §1, §2
GP1681 was incubated with cells lines at either 37° C. or room temperature, for 90-180 minutes (temperatures and incubation times are all dependent on established optimized procedures for each receptor cell line) after which cell wells were processed and signal production detected. […] Vehicle only controls (PBS, pH 7.4) were also included for each receptor cell line. Receptor binding activity was analyzed using CBIS data analysis suite (ChemInnovation, CA). The percentage of activity was calculated using the following formula: % Activity=100%×(mean RLU of test sample−mean RLU of vehicle control)/(mean MAX control ligand−mean RLU of vehicle control). Dose curves were performed and EC50 values determined.

CC#CCC(C)C(O)C=CC1C(O)CC2Oc3c(CCCC(=O)O)cccc3C21 (single isomer, unassigned) [GP1681, esuberaprost]
EC50 (EP4 receptor (PTGER4) [1]; 5K 37C, N not given): 11.9 µM
EC50 (EP4 receptor (PTGER4) [1]; N = 1, 5K 37C): 23.4 µM
EC50 (EP4 receptor (PTGER4) [1]; N = 1, 5K RT): 12.7 µM
EC50 (EP4 receptor (PTGER4) [1]; N = 1, 7.5K 37C): 22 µM
EC50 (EP4 receptor (PTGER4) [1]; N = 1, 7.5K RT): 14.8 µM
EC50 (EP4 receptor (PTGER4) [1]; N = 2, 5K 37C): 16.2 µM
EC50 (EP4 receptor (PTGER4) [1]; N = 2, 5K RT): 16.1 µM
EC50 (EP4 receptor (PTGER4) [1]; N = 2, 7.5K 37C): 18 µM
EC50 (EP4 receptor (PTGER4) [1]; N = 2, 7.5K RT): 11.1 µM
EC80 concentration (EP4 receptor (PTGER4) [1]; from GP1681 binding curves, used in the antagonist assays): 45 µM
EC50 (EP4 receptor (PTGER4) [2]; Run 1, GP1681 starting concentration 4 uM, curve for GP1681 not fully sigmoidal): 1.74 µM
EC50 (EP4 receptor (PTGER4) [2]; Run 2, GP1681 starting concentration 500 μM): 18.1 µM
stable at room temperature [3]: at least 3.7 hours
binding to TP receptor, in words (TP receptor (TBAX2R)): does not bind
EC50 (TP receptor (TBAX2R); Run 1, GP1681 starting concentration 4 uM, β-Arrestin): > 4 µM
